Kd and Km data for five molecules are collected here from article PMC7248194, “Cell-Based Radiotracer Binding and Uptake Inhibition Assays: A Comparison of In Vitro Methods to Assess the Potency of Drugs That Target Monoamine Transporters” (Frontiers in Pharmacology, 2020).

A word on the Kd: it is the concentration at which binding is half-saturated. One may read the Km as the substrate concentration at which the rate is half of its maximum.

The target in data set [1] is T1, rSERT (Rattus norvegicus, UniProt P31652).
T1 construct: gene Slc6a4; full-length, stably expressed in HEK 293 cells (Vienna, 'cell line 3')
T1 sequence (P31652 whole entry): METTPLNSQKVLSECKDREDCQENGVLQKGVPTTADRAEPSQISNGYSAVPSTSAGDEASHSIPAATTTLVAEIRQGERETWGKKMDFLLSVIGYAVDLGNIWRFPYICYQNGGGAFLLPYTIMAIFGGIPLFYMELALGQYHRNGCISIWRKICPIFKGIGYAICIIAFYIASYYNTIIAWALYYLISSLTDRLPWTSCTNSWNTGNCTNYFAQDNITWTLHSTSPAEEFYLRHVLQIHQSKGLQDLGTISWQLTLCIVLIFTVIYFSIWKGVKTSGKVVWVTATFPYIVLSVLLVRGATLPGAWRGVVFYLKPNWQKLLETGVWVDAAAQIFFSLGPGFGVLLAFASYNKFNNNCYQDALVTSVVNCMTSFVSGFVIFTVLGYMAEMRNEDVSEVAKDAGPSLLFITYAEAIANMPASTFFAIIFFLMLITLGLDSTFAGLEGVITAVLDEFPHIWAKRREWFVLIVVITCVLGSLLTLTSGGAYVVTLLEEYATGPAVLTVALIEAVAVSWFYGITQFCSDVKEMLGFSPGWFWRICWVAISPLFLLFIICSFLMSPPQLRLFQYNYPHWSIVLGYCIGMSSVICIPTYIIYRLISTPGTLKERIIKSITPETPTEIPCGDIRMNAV
In words: [3H]-CFT saturation binding, adherent HEK […] cells. The format is cell-based. Conditions: read-out: Kd ± SD.

In data set [2] the target is T2, hSERT (Homo sapiens, UniProt P31645).
T2 construct: gene SLC6A4; full-length, stably expressed in HEK 293 cells (Basel, 'cell line 2')
T2 sequence (P31645 whole entry): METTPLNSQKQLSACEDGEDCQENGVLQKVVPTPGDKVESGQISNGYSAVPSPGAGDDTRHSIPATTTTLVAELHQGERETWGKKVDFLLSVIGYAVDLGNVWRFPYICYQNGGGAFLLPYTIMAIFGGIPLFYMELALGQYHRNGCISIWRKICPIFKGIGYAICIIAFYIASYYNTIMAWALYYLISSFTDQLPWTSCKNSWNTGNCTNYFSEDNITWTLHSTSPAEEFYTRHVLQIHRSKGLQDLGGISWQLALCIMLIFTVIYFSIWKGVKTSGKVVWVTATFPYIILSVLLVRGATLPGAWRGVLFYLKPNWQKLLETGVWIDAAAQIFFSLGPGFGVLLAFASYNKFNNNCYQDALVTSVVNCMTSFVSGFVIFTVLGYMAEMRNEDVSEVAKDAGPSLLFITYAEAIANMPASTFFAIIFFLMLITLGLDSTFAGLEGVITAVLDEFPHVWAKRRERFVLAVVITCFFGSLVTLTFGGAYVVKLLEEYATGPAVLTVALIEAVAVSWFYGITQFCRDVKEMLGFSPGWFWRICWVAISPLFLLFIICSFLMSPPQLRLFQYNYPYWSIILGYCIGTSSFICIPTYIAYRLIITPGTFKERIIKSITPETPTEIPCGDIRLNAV
In words: [3H]-CFT saturation binding, adherent HEK […] cells. The format is cell-based. Conditions: read-out: Kd ± SD.

Data set [3] has as its target T3, hNET (Homo sapiens, UniProt P23975).
T3 construct: gene SLC6A2; full-length, stably expressed in HEK 293 cells (Basel, 'cell line 2')
The data set can be described thus: [3H]-CFT saturation binding, adherent HEK […] cells. Conditions: read-out: Kd ± SD. The format is cell-based.

Data set [4] addresses T4, rNET (Rattus norvegicus, UniProt Q63380).
T4 construct: gene Slc6a2; full-length, stably expressed in HEK 293 cells (Vienna, 'cell line 3')
The data set can be described thus: [3H]-CFT saturation binding, adherent HEK […] cells. The format is cell-based. The following applies: read-out: Kd ± SD.

Data set [5] addresses T1, rSERT. The data set can be described thus: saturation uptake, adherent HEK […] cells. The format is cell-based. The following applies: cell line 3; labelled compound, 200 nM [3H]-5-HT diluted with unlabelled; KHB pH 7.3, room temperature, 1 min; read-out: Km ± SD.
Data set [6] has as its system T5, NCCc1c[nH]c2ccc(O)cc12.
T5 construct: full-length, stably expressed in HEK 293 cells (Basel, 'cell line 2')
In words: cells, lysate or membranes. It counts as cell-based, Homo sapiens. Conditions: cell line 2, labelled compound, 200 nM [3H]-5-HT diluted with unlabelled, KHB pH 7.3, room temperature, 1 min.

Substrate in data set [7]: NCCc1ccc(O)c(O)c1
In words: cells, lysate or membranes. It counts as cell-based, Rattus norvegicus. The following applies: cell line 3, labelled compound, 200 nM [3H]-dopamine diluted with unlabelled, KHB pH 7.3, room temperature, 1 min.

Substrate in data set [8]: NCCc1ccc(O)c(O)c1
The data set can be described thus: cells, lysate or membranes. The following applies: cell line 2, labelled compound, 200 nM [3H]-dopamine diluted with unlabelled, KHB pH 7.3, room temperature, 1 min.

T4 sequence (Q63380 1-617): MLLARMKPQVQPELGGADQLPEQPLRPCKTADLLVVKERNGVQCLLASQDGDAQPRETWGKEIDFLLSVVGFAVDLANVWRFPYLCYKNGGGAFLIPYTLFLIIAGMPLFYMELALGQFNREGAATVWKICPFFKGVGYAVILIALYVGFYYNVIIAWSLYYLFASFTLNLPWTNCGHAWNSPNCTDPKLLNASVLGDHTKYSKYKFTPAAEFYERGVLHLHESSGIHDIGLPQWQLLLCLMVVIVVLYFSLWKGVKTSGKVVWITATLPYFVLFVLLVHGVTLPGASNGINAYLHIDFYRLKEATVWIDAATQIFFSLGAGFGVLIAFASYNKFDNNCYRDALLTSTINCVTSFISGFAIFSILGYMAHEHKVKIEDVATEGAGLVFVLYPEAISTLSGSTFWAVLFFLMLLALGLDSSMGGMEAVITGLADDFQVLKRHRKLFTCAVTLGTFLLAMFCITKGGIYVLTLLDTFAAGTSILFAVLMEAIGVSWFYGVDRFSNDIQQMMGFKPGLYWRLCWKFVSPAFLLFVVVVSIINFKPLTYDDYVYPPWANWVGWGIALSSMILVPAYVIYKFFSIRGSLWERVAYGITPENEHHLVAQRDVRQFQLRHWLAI
T3 sequence (P23975 whole entry): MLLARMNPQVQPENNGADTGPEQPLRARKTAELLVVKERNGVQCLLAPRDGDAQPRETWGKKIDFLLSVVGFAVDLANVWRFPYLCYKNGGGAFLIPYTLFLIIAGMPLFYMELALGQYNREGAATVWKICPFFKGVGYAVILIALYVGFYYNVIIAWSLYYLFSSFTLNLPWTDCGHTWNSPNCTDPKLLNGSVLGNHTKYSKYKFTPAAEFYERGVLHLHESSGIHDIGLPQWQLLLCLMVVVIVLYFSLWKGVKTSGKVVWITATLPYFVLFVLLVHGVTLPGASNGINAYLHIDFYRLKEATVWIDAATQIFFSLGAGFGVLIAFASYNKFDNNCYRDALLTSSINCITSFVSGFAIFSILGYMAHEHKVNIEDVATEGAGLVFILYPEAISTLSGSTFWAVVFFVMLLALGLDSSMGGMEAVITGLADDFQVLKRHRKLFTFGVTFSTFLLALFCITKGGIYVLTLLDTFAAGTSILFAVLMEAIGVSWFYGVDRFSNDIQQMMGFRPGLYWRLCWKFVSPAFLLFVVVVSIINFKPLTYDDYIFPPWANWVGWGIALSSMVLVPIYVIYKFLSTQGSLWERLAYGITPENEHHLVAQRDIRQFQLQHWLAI

On to `COC(=O)[C@H]1[C@@H](c2ccc(F)cc2)C[C@@H]2CC[C@H]1N2C` [CFT, 2-β-carbomethoxy-3-β-(4-fluorophenyl)tropane], for which the Kd in data set [1] is 1130 ± 70 nM; in data set [2], 1200 ± 400 nM; in data set [3], 70 ± 20 nM; in data set [4] it was 130 ± 70 nM.

For `NCCc1c[nH]c2ccc(O)cc12` [5-HT], the Km in data set [5] turned out to be 3.4 ± 1.5 µM. Regarding hSERT (Homo sapiens), the Km in data set [6] is on record as 4.1 ± 1.0 µM.

B1: rDAT (Rattus norvegicus) (protein)
chain: MSKSKCSVGPMSSVVAPAKESNAVGPREVELILVKEQNGVQLTNSTLINPPQTPVEAQERETWSKKIDFLLSVIGFAVDLANVWRFPYLCYKNGGGAFLVPYLLFMVIAGMPLFYMELALGQFNREGAAGVWKICPVLKGVGFTVILISFYVGFFYNVIIAWALHYFFSSFTMDLPWIHCNNTWNSPNCSDAHASNSSDGLGLNDTFGTTPAAEYFERGVLHLHQSRGIDDLGPPRWQLTACLVLVIVLLYFSLWKGVKTSGKVVWITATMPYVVLTALLLRGVTLPGAMDGIRAYLSVDFYRLCEASVWIDAATQVCFSLGVGFGVLIAFSSYNKFTNNCYRDAIITTSINSLTSFSSGFVVFSFLGYMAQKHNVPIRDVATDGPGLIFIIYPEAIATLPLSSAWAAVFFLMLLTLGIDSAMGGMESVITGLVDEFQLLHRHRELFTLGIVLATFLLSLFCVTNGGIYVFTLLDHFAAGTSILFGVLIEAIGVAWFYGVQQFSDDIKQMTGQRPNLYWRLCWKLVSPCFLLYVVVVSIVTFRPPHYGAYIFPDWANALGWIIATSSMAMVPIYATYKFCSLPGSFREKLAYAITPEKDHQLVDRGEVRQFTLRHWLLL
notes: full-length, stably expressed in HEK 293 cells (Vienna, 'cell line 3')
As to B1, the Km in data set [7] is reported as 8.8 ± 3.9 µM.

B2: hDAT (Homo sapiens) (protein)
chain: MSKSKCSVGLMSSVVAPAKEPNAVGPKEVELILVKEQNGVQLTSSTLTNPRQSPVEAQDRETWGKKIDFLLSVIGFAVDLANVWRFPYLCYKNGGGAFLVPYLLFMVIAGMPLFYMELALGQFNREGAAGVWKICPILKGVGFTVILISLYVGFFYNVIIAWALHYLFSSFTTELPWIHCNNSWNSPNCSDAHPGDSSGDSSGLNDTFGTTPAAEYFERGVLHLHQSHGIDDLGPPRWQLTACLVLVIVLLYFSLWKGVKTSGKVVWITATMPYVVLTALLLRGVTLPGAIDGIRAYLSVDFYRLCEASVWIDAATQVCFSLGVGFGVLIAFSSYNKFTNNCYRDAIVTTSINSLTSFSSGFVVFSFLGYMAQKHSVPIGDVAKDGPGLIFIIYPEAIATLPLSSAWAVVFFIMLLTLGIDSAMGGMESVITGLIDEFQLLHRHRELFTLFIVLATFLLSLFCVTNGGIYVFTLLDHFAAGTSILFGVLIEAIGVAWFYGVGQFSDDIQQMTGQRPSLYWRLCWKLVSPCFLLFVVVVSIVTFRPPHYGAYIFPDWANALGWVIATSSMAMVPIYAAYKFCSLPGSFREKLAYAIAPEKDRELVDRGEVRQFTLRHWLKV
Take B2: the Km in data set [8] came out at 5.5 ± 0.8 µM.
